The record followed here is patent US20050158435A1, “Process for producing sdg and foods and drinks containing the same” (Suntory Limited, priority 2002, published 2005).

Common to all, as to type: in vivo, rat
Assay [1] deals with ovariectomized rats. Kind of assay: Antiobesity effect: body weight changes in ovariectomized rats. Particulars: forced oral administration once a day for 14 days after ovariectomy (FIG. 2). The text has this:
Female Wister-strain rats at 7 weeks of age were ovariectomized and treated with each sample once a day by forced oral administration using a metal gastric tube for 14 days after surgery. Each group consisted of 8 animals (n=8). The animals were weighed to evaluate the effect on obesity due to increased appetite after the menopause. The samples used were 17β estradiol as a positive control and genistein as a reference sample, which is a major compound of soybean isoflavone. The SDG sample was composition 4.

Assay [2] concerns ovariectomized rats. Kind of assay: Uterine weight in ovariectomized rats. The text has this:
(§1) Wistar-strain female rats (Charles River Japan, Inc.) were used, among which 41 animals were ovariectomized at 6 weeks of age and 9 animals were sham-operated at the same age, and raised on not-purified chow (CE 2; Clea Japan). After a week, the ovariectomized rats were divided into […]. The sham-operated non-ovariectomized group […] was used as a positive control.
Group I and group V and non-ovariectomized group had free access for 4 weeks to a basic diet consisting of AIN-93M Mix purified diet without Ca (Oriental Yeast Co., Ltd.). Group II, group III and group IV were fed with the basic diet supplemented with 0.1% each of soybean isoflavone, SDG (composition 4), and a combination of soybean isoflavone and SDG, respectively. Group V was treated with 17β estradiol at 1 μg/day by subcutaneous administration through the period of ingesting the test diet. During the raising period, the temperature at the tail skin of the rat was measured with a precision thermometer BAT-12R (Physitemp).
At the end of the studies in Example 7, the rats were autopsied and measured for uterine weight.

In assay [3] the test system is ovariectomized rats. Kind of assay: Hot flashes model: temperature at the tail skin of ovariectomized rats. Particulars: 0.1% in diet, 4 weeks (FIG. 3). The protocol:
A sharp decline of estrogen levels after the menopause invites hormone imbalance and autonomic failure to cause vasomotor disturbance-like symptoms such as hot flashes. In experimental animals, ovariectomy of female rats induces a rise in the temperature at the tail skin and symptoms corresponding to hot flashes among menopausal symptoms. The temperature at the tail skin was measured in ovariectomized rats treated with SDG and soybean isoflavone.
as §1
Group I and group V and non-ovariectomized group had free access for 4 weeks to a basic diet consisting of AIN-93M Mix purified diet without Ca (Oriental Yeast Co., Ltd.). Group II, group III and group IV were fed with the basic diet supplemented with 0.1% each of soybean isoflavone, SDG (composition 4), and a combination of soybean isoflavone and SDG, respectively. […] During the raising period, the temperature at the tail skin of the rat was measured with a precision thermometer BAT-12R (Physitemp).

Assay [4] relates to ovariectomized rats. Kind of assay: Bone mass (femoral dry weight) in ovariectomized rats. Particulars: 4 weeks. The source says:
(§2) It is known that after the menopause bone mass decreases through the activation of osteoclasts due to estrogen decline and causes osteoporotic symptoms. Estrogen decline may disturb the balance of lipid metabolism to cause symptoms such as hyperlipidemia and hypercholesterolemia. Ovariectomized female rats are commonly used as model animals of menopausal symptoms because ovariectomy induces the above symptoms due to the decline of estrogen levels. […] Wistar-strain female rats (Charles River Japan, Inc.) were used, among which 34 animals were ovariectomized (OVX) at 6 weeks of age and 9 animals were sham-operated (Sham) at the same age, and raised on not-purified chow (CE 2; Clea Japan). After 2 weeks, the ovariectomized rats were divided into 4 groups (n=8-9) called groups I to IV. The sham-operated non-ovariectomized group (group V, n=9) was used as a positive control. Group I and group V were free access for 4 weeks to a basic diet consisting of AIN-93M Mix purified diet without Ca (Oriental Yeast Co., Ltd.). […] On the end date of raising the rats, they were weighed and then anatomized to collect blood and dissect the right femur. After adherent tissues were removed, the femur dissected from the rat's right leg was dried at 100° C. for 24 hours and weighed.

The subject of assay [5] is ovariectomized rats. Briefly: Blood triglyceride levels in ovariectomized rats. Particulars: 0.1% in diet, 4 weeks.
Excerpt: as §2, with “Evaluation of lipid metabolism-improving effect: Plasma was isolated” for “After adherent tissues were removed, the femur dissected”, “rat blood and assayed” for “the rat's right leg was dried at 100° C.”, “triglyceride by an automatic analyzer (Hitachi).” for “24 hours and weighed.”

As to `C[C@]12CC[C@@H]3c4ccc(O)cc4CC[C@H]3[C@@H]1CC[C@@H]2O` [17β estradiol], the Body weight gain entry in the assay on ovariectomized rats [1] (0.02 mg/kg) was “body weight gain was inhibited”. The Uterine weight with ovariectomized rats [2] (1 μg/day subcutaneous administration, ***P < 0.001 vs. group I) is reported as 443.9 ± 28.8*** mg. Besides, the Uterine atrophy result in the assay with ovariectomized rats [2] (autopsy at the end of Example 7) is on record as “did not show uterine atrophy”.

Regarding `O=c1c(-c2ccc(O)cc2)coc2cc(O)cc(O)c12` [genistein], the Body weight gain result in the assay on ovariectomized rats [1] (100 mg/Kg) is “body weight gain was inhibited”.

Regarding “secoisolariciresinol diglycoside [composition 4]”, the “Rise in the temperature at the tail skin” value with ovariectomized rats [3] is on record as “the rise was inhibited”. In addition, the Body weight gain entry in the assay on ovariectomized rats [1] (50 mg/Kg) was “body weight gain was inhibited”. In the assay on ovariectomized rats [4] (ovariectomized Wistar female rats, basic diet supplemented with 0.1% of sample), the “Femoral dry weight (per 100 g body weight)” value is on record as 90.9 ± 2.7 mg. Also, the “Inhibition of bone mass decline vs group I (ovariectomized control)” value with ovariectomized rats [4] (ovariectomized rats, 0.1% in diet) is recorded as “tendency of inhibiting bone mass decline”. The Uterine weight in the assay on ovariectomized rats [2] (0.1% in diet, 4 weeks) is reported as 105.5 ± 6.8 mg. For the same compound, the “Inhibition of triglyceride increase vs group I” value with ovariectomized rats [5] is given as “significant inhibitory effect”. In the assay on ovariectomized rats [5] (plasma, *p<0.05, ** vs. group I), the Blood triglyceride is listed as 32.0 ± 3.2* mg/dl.
